Measurements published in PubChem BioAssay (NCI).
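Assay format: 96-well plates, 48-hour exposure. GI50: concentration for 50% inhibition of growth. TGI denotes the concentration required for complete inhibition of growth.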

Tests used:
Assay in all cases: NCI tumour cell line growth inhibition, 48 h
OVCAR-4 ovarian = tested on: OVCAR-4 ovarian
DU-145 prostate = tested on: DU-145 prostate
EKVX NSCLC = tested on: EKVX NSCLC
MCF7 breast = tested on: MCF7 breast
SN12C renal = tested on: SN12C renal
NCI-H23 lung = tested on: NCI-H23 lung
UACC-257 melanoma = tested on: UACC-257 melanoma
NCI/ADR-RES ovarian = tested on: NCI/ADR-RES ovarian
RPMI-8226 leukemia = tested on: RPMI-8226 leukemia
SNB-75 CNS = tested on: SNB-75 CNS
SNB-19 CNS = tested on: SNB-19 CNS
BT-549 breast = tested on: BT-549 breast
UO-31 renal = tested on: UO-31 renal
MDA-MB-231 breast = tested on: MDA-MB-231 breast
HOP-62 NSCLC = tested on: HOP-62 NSCLC
MDA-MB-435 = tested on: MDA-MB-435
ACHN renal = tested on: ACHN renal
COLO 205 colon = tested on: COLO 205 colon
NCI-H522 lung = tested on: NCI-H522 lung
MALME-3M melanoma = tested on: MALME-3M melanoma
SF-268 CNS = tested on: SF-268 CNS
HCT-15 colon = tested on: HCT-15 colon
HS 578T breast = tested on: HS 578T breast
SK-OV-3 ovarian = tested on: SK-OV-3 ovarian
KM12 colon = tested on: KM12 colon
M14 melanoma = tested on: M14 melanoma
MOLT-4 leukemia = tested on: MOLT-4 leukemia
SK-MEL-5 melanoma = tested on: SK-MEL-5 melanoma
PC-3 prostate = tested on: PC-3 prostate
K-562 leukemia = tested on: K-562 leukemia
LOX IMVI melanoma = tested on: LOX IMVI melanoma
OVCAR-8 ovarian = tested on: OVCAR-8 ovarian
HT29 colon = tested on: HT29 colon
CCRF-CEM leukemia = tested on: CCRF-CEM leukemia
U251 CNS = tested on: U251 CNS
786-0 renal = tested on: 786-0 renal
RXF 393 renal = tested on: RXF 393 renal
OVCAR-3 ovarian = tested on: OVCAR-3 ovarian
OVCAR-5 ovarian = tested on: OVCAR-5 ovarian
HCT-116 colon = tested on: HCT-116 colon
NCI-H226 lung = tested on: NCI-H226 lung
TK-10 renal = tested on: TK-10 renal
HL-60(TB) leukemia = tested on: HL-60(TB) leukemia
SK-MEL-28 melanoma = tested on: SK-MEL-28 melanoma
A549 NSCLC = tested on: A549 NSCLC
SR leukemia = tested on: SR leukemia
IGROV1 ovarian = tested on: IGROV1 ovarian
CAKI-1 renal = tested on: CAKI-1 renal
SF-295 CNS = tested on: SF-295 CNS
HOP-92 NSCLC = tested on: HOP-92 NSCLC
NCI-H460 lung = tested on: NCI-H460 lung
HCC-2998 colon = tested on: HCC-2998 colon
T-47D breast = tested on: T-47D breast
SF-539 CNS = tested on: SF-539 CNS
UACC-62 melanoma = tested on: UACC-62 melanoma
SK-MEL-2 melanoma = tested on: SK-MEL-2 melanoma
SW-620 colon = tested on: SW-620 colon
A498 renal = tested on: A498 renal

Cc1cc(I)cc(CN(C)CCN(C)C)c1O
GI50 (OVCAR-4 ovarian): 52.2 µM | TGI (OVCAR-4 ovarian): > 100 µM | GI50 (DU-145 prostate): 44.4 µM | TGI (DU-145 prostate): > 100 µM | GI50 (EKVX NSCLC): 61.5 µM | TGI (EKVX NSCLC): > 100 µM | GI50 (MCF7 breast): 25.6 µM | TGI (MCF7 breast): 66.1 µM | GI50 (SN12C renal): 47.4 µM | TGI (SN12C renal): > 100 µM | GI50 (NCI-H23 lung): 33.1 µM | TGI (NCI-H23 lung): > 100 µM | GI50 (UACC-257 melanoma): 39.3 µM | TGI (UACC-257 melanoma): > 62 µM | GI50 (NCI/ADR-RES ovarian): 38.1 µM | TGI (NCI/ADR-RES ovarian): > 100 µM | GI50 (RPMI-8226 leukemia): 15.5 µM | TGI (RPMI-8226 leukemia): 51.6 µM | GI50 (SNB-75 CNS): 21.9 µM | TGI (SNB-75 CNS): 59.9 µM | GI50 (SNB-19 CNS): 64.3 µM | TGI (SNB-19 CNS): > 100 µM | GI50 (BT-549 breast): 26.8 µM | TGI (BT-549 breast): > 78.3 µM | GI50 (UO-31 renal): 40.7 µM | TGI (UO-31 renal): > 100 µM | GI50 (MDA-MB-231 breast): 26.7 µM | TGI (MDA-MB-231 breast): > 72.3 µM | GI50 (HOP-62 NSCLC): 37.8 µM | TGI (HOP-62 NSCLC): > 100 µM | GI50 (MDA-MB-435): 18.8 µM | TGI (MDA-MB-435): 48.9 µM | GI50 (ACHN renal): 39.6 µM | TGI (ACHN renal): > 100 µM | GI50 (COLO 205 colon): 17.3 µM | TGI (COLO 205 colon): 33.3 µM | GI50 (NCI-H522 lung): 36.8 µM | TGI (NCI-H522 lung): > 100 µM | GI50 (MALME-3M melanoma): 18.9 µM | TGI (MALME-3M melanoma): 36.8 µM | GI50 (SF-268 CNS): 20.7 µM | TGI (SF-268 CNS): > 73 µM | GI50 (HCT-15 colon): 28.5 µM | TGI (HCT-15 colon): 76.5 µM | GI50 (HS 578T breast): 26 µM | TGI (HS 578T breast): > 69 µM | GI50 (SK-OV-3 ovarian): 76.6 µM | TGI (SK-OV-3 ovarian): > 100 µM | GI50 (KM12 colon): 46.3 µM | TGI (KM12 colon): > 100 µM | GI50 (M14 melanoma): 16 µM | TGI (M14 melanoma): 31.8 µM | GI50 (MOLT-4 leukemia): 26.6 µM | TGI (MOLT-4 leukemia): > 68.6 µM | GI50 (SK-MEL-5 melanoma): 16.5 µM | TGI (SK-MEL-5 melanoma): 30.3 µM | GI50 (PC-3 prostate): 29.1 µM | TGI (PC-3 prostate): > 100 µM | GI50 (K-562 leukemia): 24.9 µM | TGI (K-562 leukemia): > 64.3 µM | GI50 (LOX IMVI melanoma): 24.4 µM | TGI (LOX IMVI melanoma): > 73.1 µM | GI50 (OVCAR-8 ovarian): 60 µM | TGI (OVCAR-8 ovarian): > 100 µM | GI50 (HT29 colon): 19.4 µM | TGI (HT29 colon): 41.9 µM | GI50 (CCRF-CEM leukemia): < 0.0354 µM | GI50 (U251 CNS): 39.2 µM | TGI (U251 CNS): > 100 µM | GI50 (786-0 renal): 40.1 µM | TGI (786-0 renal): > 100 µM | GI50 (RXF 393 renal): 25.5 µM | TGI (RXF 393 renal): > 84.8 µM | GI50 (OVCAR-3 ovarian): 41.9 µM | TGI (OVCAR-3 ovarian): > 100 µM | GI50 (OVCAR-5 ovarian): 55.7 µM | TGI (OVCAR-5 ovarian): > 100 µM | GI50 (HCT-116 colon): 24.9 µM | TGI (HCT-116 colon): > 100 µM | GI50 (NCI-H226 lung): 75.3 µM | TGI (NCI-H226 lung): > 100 µM | GI50 (TK-10 renal): 33.1 µM | TGI (TK-10 renal): > 100 µM | GI50 (HL-60(TB) leukemia): 19.7 µM | TGI (HL-60(TB) leukemia): 55.9 µM | GI50 (SK-MEL-28 melanoma): 18.2 µM | TGI (SK-MEL-28 melanoma): 33.4 µM | GI50 (A549 NSCLC): 46.6 µM | TGI (A549 NSCLC): > 100 µM | GI50 (SR leukemia): 5.44 µM | TGI (SR leukemia): 50.4 µM | GI50 (IGROV1 ovarian): 27.7 µM | TGI (IGROV1 ovarian): 82.7 µM | GI50 (CAKI-1 renal): 26.7 µM | TGI (CAKI-1 renal): > 80.4 µM | GI50 (SF-295 CNS): 20.5 µM | TGI (SF-295 CNS): 56.8 µM | GI50 (HOP-92 NSCLC): 17.1 µM | TGI (HOP-92 NSCLC): 67.3 µM | GI50 (NCI-H460 lung): 26.7 µM | TGI (NCI-H460 lung): > 100 µM | GI50 (HCC-2998 colon): 16.3 µM | TGI (HCC-2998 colon): 32.1 µM | GI50 (T-47D breast): 28.8 µM | TGI (T-47D breast): > 100 µM | GI50 (SF-539 CNS): 30.7 µM | TGI (SF-539 CNS): > 82.8 µM | GI50 (UACC-62 melanoma): 17.8 µM | TGI (UACC-62 melanoma): 33 µM | GI50 (SK-MEL-2 melanoma): 22.1 µM | TGI (SK-MEL-2 melanoma): 44.2 µM | GI50 (SW-620 colon): 39.5 µM | TGI (SW-620 colon): > 100 µM | GI50 (A498 renal): 33.8 µM | TGI (A498 renal): > 77.9 µM
